{"source": "patent US20050202078A1", "about": "“Vesicle-encapsulated corticosteroids for the treatment of cancer” (priority 2002, published 2005)", "key": {"[1]": {"system": "B16 murine melanoma", "assay": "Tumor growth inhibition, effect of tumor size (time of injection), B16 model", "format": "in vivo, C57B1/6 mice", "procedure": "(§1) FIG. 3: Effect of tumor size on anti-tumor effects of free or liposomal PLP in B16- or C26-bearing mice. Mice received either single or multiple injections with 20 mg/kg PLP of the indicated formulations. Arrows indicate treatment. Mean±S.D. is reported. N=5 mice/experimental group; and\n(§2) B16 murine melanoma and C26 murine colon carcinoma cells were cultured at 37° C. in a 5% CO2-containing humidified atmosphere in DMEM medium (Gibco, Breda, The Netherlands) containing 10% (v/v) fetal calf serum supplemented with 2 mM L-glutamine, 100 IU/ml penicillin, 100 μg/ml streptomycin and 0.25 μg/ml amphotericin B (Gibco).\n(§3) As a reference, B16F10 tumors became palpable around seven days and C26 tumors around eleven days after tumor cell inoculation. Tumor size was measured regularly and tumor volume was calculated as described above.\n(§4) To determine the effect of time of injection of free or liposomal PLP on tumor growth inhibition, the formulations were injected at a dose of 20 mg/kg at day 1, 7 and 14 or single injection at day 7 or day 14. See, in this light, FIG. 3 showing the results."}, "[2]": {"system": "C26 murine colon carcinoma", "assay": "Tumor growth inhibition, effect of dose, C26 model", "format": "in vivo, Balb/c mice", "conditions": "20 mg/kg or 50 mg/kg, single injection; one week later", "procedure": "(§5) FIG. 2: Effect of dose of free or liposomal PLP on tumor growth in B16- or C26-bearing mice. Mice received a single injection with the indicated dose and formulation of PLP on the day tumors became palpable. Tumor volume one week later is reported. Mean±S.D. N=5 mice/experimental group;\nas §2\n(§6) Tissue distribution of ^111In-labeled PEG liposomes in tumor-bearing mice. 1×10^5 B 16 or C26 cells were inoculated subcutaneously in the flank of C57B1/6 of Balb/c mice, respectively. […] At 6 hours and 24 hours after injection, animals were sacrificed, a blood sample was taken, and tumor, lung, liver, spleen and kidneys were dissected, weighed and radioactivity was counted. […]\n(§7) Mice received a single intravenous injection of an indicated dose of free PLP or liposomal PLP at the time when the tumor became palpable. At seven days after treatment, tumor size was measured and tumor volume calculated according to the equation V=0.52×a^2×b, wherein a is the smallest and b is the largest superficial diameter."}, "[3]": {"system": "B16 murine melanoma", "assay": "Tumor growth inhibition, effect of dose, B16 model", "format": "in vivo, C57B1/6 mice", "conditions": "20 mg/kg or 50 mg/kg, single injection; one week later", "procedure": "as §5, §2, §6, §7"}, "[4]": {"system": "C26 murine colon carcinoma", "assay": "Tumor growth inhibition, effect of tumor size (time of injection), C26 model", "format": "in vivo, Balb/c mice", "procedure": "as §1, §2, §3, §4"}, "[5]": {"conditions": "single injection 20 mg/kg at day 7"}}}
{"substance": "prednisolone disodium phosphate [free PLP]", "values": [{"measurement": "tumor growth inhibition between day 1 and day 7", "setting": "[1]; 20 mg/kg i.v. at day 1", "result": "Neither liposomal PLP nor free PLP inhibited tumor growth"}, {"measurement": "tumor growth inhibition as compared to controls, between day 7 and day 14", "setting": "[1]; 20 mg/kg i.v. at day 1 and second injection at day 7, p<0.05", "result": "did not reduce tumor volume"}, {"measurement": "significantly smaller tumor volume after single injection", "setting": "[1]; [5]", "result": "only seen after treatment with liposomal PLP"}, {"measurement": "tumor volume compared to buffer-treated control animals", "setting": "[2]", "result": "did not result in significantly different tumor volumes"}, {"measurement": "tumor volume compared to buffer-treated control animals", "setting": "[3]", "result": "did not result in significantly different tumor volumes"}, {"measurement": "tumor growth inhibition between day 1 and day 7", "setting": "[4]; 20 mg/kg i.v. at day 1", "result": "Neither liposomal PLP nor free PLP inhibited tumor growth"}, {"measurement": "tumor growth inhibition, multiple injections", "setting": "[4]; 20 mg/kg i.v. at day 1, 7 and 14", "result": "did not inhibit tumor growth"}, {"measurement": "significance of tumor volume compared to controls", "setting": "[4]; [5]", "result": "not significantly smaller with either treatment"}]}
